We go through 19 compounds from ChEMBL document CHEMBL3044586, “Design, synthesis, and anticonvulsant screening of some substituted piperazine and aniline derivatives of 5-phenyl-oxazolidin-2,4-diones and 5,5-diphenylimidazolidin-2,4 diones” (Med Chem Res, 2012).

The test system of data set [1] is Mus musculus. In words: Anticonvulsant activity in Mus musculus Swiss albino (mouse) assessed as reduction in maximal electroshock-induced seizure at 30 to 300 mg/kg, ip measured after 0.5 hr. The class given is functional, organism-based. Background: In the maximal electroshock model the usual endpoint is tonic extension of the hind limbs.
Data set [2] concerns Mus musculus. Nature of the data set: Neurotoxicity against Mus musculus Swiss albino (mouse) assessed as inability to maintain equilibrium on rod at 30 to 300 mg/kg, ip measured after 4 hr by rotarod test. Format: toxicity, organism-based. Details: dose 30-300 mg/kg, route intraperitoneal. The note with it: in vivo. For orientation: Falling from the rotarod earlier than controls is read as motor impairment.

Data set [3] relates to Mus musculus. Nature of the data set: Neurotoxicity against Mus musculus Swiss albino (mouse) assessed as inability to maintain equilibrium on rod at 30 to 300 mg/kg, ip measured after 0.5 hr by rotarod test. The class given is toxicity, organism-based. Details: dose 30-300 mg/kg, route intraperitoneal. Particulars: in vivo.
Data set [4] has as its system Mus musculus. Nature of the data set: Anticonvulsant activity in Mus musculus Swiss albino (mouse) assessed as reduction in maximal electroshock-induced seizure at 30 to 300 mg/kg, ip measured after 4 hr. The class given is functional, organism-based.
Data set [5] deals with Mus musculus. Nature of the data set: Neurotoxicity against Mus musculus Swiss albino (mouse) assessed as inability to maintain equilibrium on rod at 300 mg/kg, ip measured after 4 hr by rotarod test. The class given is toxicity, organism-based. Details: dose 300 mg/kg, route intraperitoneal. Particulars: in vivo.
Data set [6] relates to Mus musculus. Nature of the data set: Anticonvulsant activity in Mus musculus Swiss albino (mouse) assessed as reduction in maximal electroshock-induced seizure at 300 mg/kg, ip measured after 4 hr. Format: functional, organism-based. Further details: dose 300 mg/kg.
For data set [7], the system named is Rattus norvegicus. Nature of the data set: Presynaptic agonist activity at 5HT1A receptor in Rattus norvegicus Wistar (rat) assessed as change in rectal temperature at 10 mg/kg, ip measured after 30 min (reference value: -0.1 +/- 0.1 degC). Format: functional, organism-based. Further details: dose 10 mg/kg.
Data set [8] relates to Rattus norvegicus. In words: Presynaptic agonist activity at 5HT1A receptor in Rattus norvegicus Wistar (rat) assessed as change in rectal temperature at 20 mg/kg, ip measured after 60 min (reference value: 0.0 +/- 0.1 degC). Format: functional, organism-based. Details: dose 20 mg/kg.
Data set [9] concerns Rattus norvegicus. In words: Presynaptic agonist activity at 5HT1A receptor in Rattus norvegicus Wistar (rat) assessed as change in rectal temperature at 10 mg/kg, ip measured after 90 min (reference value: -0.2 +/- 0.1 degC). The class given is functional, organism-based. Further details: dose 10 mg/kg.
Data set [10] relates to Rattus norvegicus. Nature of the data set: Presynaptic agonist activity at 5HT1A receptor in Rattus norvegicus Wistar (rat) assessed as change in rectal temperature at 10 mg/kg, ip measured after 60 min (reference value: 0.0 +/- 0.1 degC). The class given is functional, organism-based. Further details: dose 10 mg/kg.
Data set [11] relates to Rattus norvegicus. In words: Presynaptic agonist activity at 5HT1A receptor in Rattus norvegicus Wistar (rat) assessed as change in rectal temperature at 20 mg/kg, ip measured after 120 min (reference value: 0.0 +/- 0.1 degC). The class given is functional, organism-based. Further details: dose 20 mg/kg.
Data set [12] has as its system Rattus norvegicus. In words: Neurotoxicity against Rattus norvegicus Wistar (rat) assessed as inability to maintain equilibrium on rod at 30 mg/kg, po measured after 4 hr by rotarod test. Format: toxicity, organism-based. Details: dose 30 mg/kg, route oral. Particulars: in vivo.
For data set [13], the system named is Mus musculus. In words: Binding affinity to 5HT2A receptor in ip dosed Mus musculus Swiss albino (mouse) assessed as effect on +/-DOI-induced head twitching administered 60 min prior to +/-DOI-challenge measured for 20 min. The class given is functional, organism-based.
Data set [14] has as its system Rattus norvegicus. Nature of the data set: Presynaptic agonist activity at 5HT1A receptor in Rattus norvegicus Wistar (rat) assessed as change in rectal temperature at 10 mg/kg, ip measured after 120 min (reference value: 0.0 +/- 0.1 degC). Format: functional, organism-based. Details: dose 10 mg/kg.
The subject of data set [15] is Rattus norvegicus. In words: Anticonvulsant activity in Rattus norvegicus Wistar (rat) assessed as reduction in maximal electroshock-induced seizures at 30 mg/kg, po measured after 4 hr. The class given is functional, organism-based. Details: dose 30 mg/kg.
Data set [16] deals with Mus musculus. Nature of the data set: Anticonvulsant activity in Mus musculus Swiss albino (mouse) assessed as reduction in maximal electroshock-induced seizure at 30 mg/kg, ip measured after 4 hr. Format: functional, organism-based. Details: dose 30 mg/kg.
Data set [17] relates to Rattus norvegicus. In words: Presynaptic agonist activity at 5HT1A receptor in Rattus norvegicus Wistar (rat) assessed as change in rectal temperature at 20 mg/kg, ip measured after 30 min (reference value: -0.1 +/- 0.1 degC). The class given is functional, organism-based. Further details: dose 20 mg/kg.
Data set [18] deals with Rattus norvegicus. Nature of the data set: Postsynaptic agonist activity at 5HT1A receptor in Rattus norvegicus Wistar (rat) assessed as increase in lower lip retraction at 10 to 20 mg/kg, ip measured after 15 min. The class given is functional, organism-based.
In data set [19] the test system is Rattus norvegicus. Nature of the data set: Anticonvulsant activity in Rattus norvegicus Wistar (rat) assessed as reduction in maximal electroshock-induced seizures at 30 mg/kg, po measured after 0.5 hr. The class given is functional, organism-based. Further details: dose 30 mg/kg.
The test system of data set [20] is Rattus norvegicus. In words: Neurotoxicity against Rattus norvegicus Wistar (rat) assessed as inability to maintain equilibrium on rod at 30 mg/kg, po measured after 0.5 hr by rotarod test. The class given is toxicity, organism-based. Further details: dose 30 mg/kg, route oral. Particulars: in vivo.
Data set [21] deals with Rattus norvegicus. Nature of the data set: Presynaptic agonist activity at 5HT1A receptor in Rattus norvegicus Wistar (rat) assessed as change in rectal temperature at 20 mg/kg, ip measured after 90 min (reference value: -0.2 +/- 0.1 degC). Details: dose 20 mg/kg. The class given is functional, organism-based.
The subject of data set [22] is Mus musculus. In words: Anticonvulsant activity in Mus musculus Swiss albino (mouse) assessed as reduction in maximal electroshock-induced seizure at 100 mg/kg, ip measured after 4 hr. Format: functional, organism-based. Further details: dose 100 mg/kg.
Data set [23] deals with Rattus norvegicus. In words: Postsynaptic antagonist activity at 5HT1A receptor in Rattus norvegicus Wistar (rat) assessed as inhibition of 8-OH-DPAT-induced lower lip retraction at 10 to 20 mg/kg, ip administered 45 min prior to 8-OH-DPAT-challenge measured after 15 min. Format: functional, organism-based.
Data set [24] concerns Mus musculus. In words: Antagonist activity at 5HT2A receptor in ip dosed Mus musculus Swiss albino (mouse) assessed as inhibition of +/-DOI-induced head twitching administered 60 min prior to +/-DOI-challenge measured for 20 min. Format: functional. The note with it: read-out: ID50 (the source's name).
Data set [25] relates to Mus musculus. In words: Anticonvulsant activity in Mus musculus Swiss albino (mouse) assessed as reduction in maximal electroshock-induced seizure at 100 mg/kg, ip measured after 0.5 hr. Format: functional, organism-based. Further details: dose 100 mg/kg.

Calls of active or inactive are those of the source. The rule behind the calls is not given here.

Turning to `Cc1ccc(N2CCN(CCN3C(=O)OC(c4ccccc4)C3=O)CC2)cc1` (centres undefined), the outcome in data set [1] and in data set [4] was inactive. Further, the Activity entry in data set [2] and in [3] was “Non-toxic” throughout.
On to `O=C1OC(c2ccccc2)C(=O)N1CCN1CCN(c2ccc(Cl)cc2)CC1` (centres undefined), for which the outcome in data set [1] and in data set [4] was inactive. Moreover, the Activity result in [2] and in data set [3] was “Non-toxic” throughout.
As for `O=C1OC(c2ccccc2)C(=O)N1CCN1CCN(c2ccc([N+](=O)[O-])cc2)CC1` (centres undefined), the Activity entry in [5] is “Toxic”; in [3], “Non-toxic”. Besides, the result in data set [1] was inactive. In addition, the result in [6] was Active.
Consider `O=C1OC(c2ccccc2)C(=O)N1CCN1CCN(c2ccccn2)CC1` (centres undefined), for which the result in data set [1] and in data set [4] was inactive. Also, the Activity entry in data set [2] and in data set [3] was “Non-toxic” in each case.
As to `O=C1OC(c2ccccc2)C(=O)N1CCN1CCN(c2ccc(O)cc2)CC1` (centres undefined), the outcome in [1] and in [4] was inactive. The Activity result in [2] and in [3] was “Non-toxic” throughout.
As for `O=C1NC(c2ccccc2)(c2ccccc2)C(=O)N1CCN1CCN(c2ccc(Cl)cc2)CC1`, the result in data set [1] and in data set [4] was inactive. Also, the Activity result in data set [2] and in data set [3] was “Non-toxic” in each case.
Consider `Cc1ccc(NCCN2C(=O)NC(c3ccccc3)(c3ccccc3)C2=O)cc1`, for which the outcome in [1] and in data set [4] was inactive. Moreover, the Activity result in data set [2] and in data set [3] was “Non-toxic” throughout.
On to `O=C1NC(c2ccccc2)(c2ccccc2)C(=O)N1CCN1CCN(c2ccc(F)cc2)CC1`, for which the deltaT is -0.9 °C in [7]; -1.6 °C in [8]; -0.7 °C in data set [9]; -0.7 °C in data set [10]; -1.7 °C in data set [11]; -0.8 °C in data set [14]. The figures for the deltaT in data set [17] and in [21] were -1.7 °C and -1.6 °C, respectively. The Activity result in [12], in data set [2], in [3] and in data set [20] was “Non-toxic” in each case. The outcome in data set [1], in [13] and in [19] was inactive. For the same compound, the result in data set [15], in data set [16] and in data set [18] was Active.
As to `O=C1OC(c2ccccc2)C(=O)N1CCNc1ccc(F)cc1` (centres undefined), the Activity entry is “Toxic” in data set [5] and “Non-toxic” in [3]. The outcome in data set [1] was inactive. Besides, the outcome in data set [6] was Active.
With `COc1ccc(NCCN2C(=O)OC(c3ccccc3)C2=O)cc1` (centres undefined), the deltaT is -0.5 °C in [7]; -1.5 °C in data set [8]; -0.8 °C in data set [9]; -0.8 °C in data set [10]; -1.3 °C in data set [11]; -0.7 °C in data set [14]. Besides, the figures for the deltaT in [17] and in data set [21] were -1.1 °C and -1.5 °C, respectively. The Activity result in data set [12], in [2], in [3] and in data set [20] was “Non-toxic” each time. For the same compound, the outcome in [1], in [13], in data set [15] and in data set [19] was inactive. In addition, in [22], the result was Active. For the same compound, in [23], the inhibition result is “Active”.
In the case of `Cc1ccc(NCCN2C(=O)OC(c3ccccc3)C2=O)cc1` (centres undefined), the outcome in [1] and in [4] was inactive. For the same compound, the Activity result in data set [2] and in data set [3] was “Non-toxic” throughout.
In the case of `O=C1NC(c2ccccc2)(c2ccccc2)C(=O)N1CCN1CCN(c2ccc(O)cc2)CC1`, the results for the Activity entry in [5] and in [3] were “Toxic” and “Non-toxic”, respectively. For the same compound, in data set [1], the result was inactive. Further, the result in data set [6] was Active.
As to `O=C1NC(c2ccccc2)(c2ccccc2)C(=O)N1CCN1CCN(c2ccc([N+](=O)[O-])cc2)CC1`, the values for the Activity entry in data set [5] and in [3] were “Toxic” and “Non-toxic”, respectively. In addition, the result in data set [1] was inactive. For the same compound, in data set [6], the result was Active.
With `O=C(c1ccc(F)cc1)C1CCN(CCn2c(=O)[nH]c3ccccc3c2=O)CC1` [KETANSERIN], the ED50 in [24] amounted to 0.12 mg/kg.
As to `O=C1NC(c2ccccc2)(c2ccccc2)C(=O)N1CCNc1ccc(Cl)cc1`, the outcome in data set [1] and in [4] was inactive. Further, the Activity result in data set [2] and in [3] was “Non-toxic” each time.
Regarding `O=C1NC(c2ccccc2)(c2ccccc2)C(=O)N1CCNc1ccc(F)cc1`, the deltaT is -0.5 °C in data set [7]; -2.7 °C in data set [8]; -0.9 °C in data set [9]; -0.7 °C in [10]; -1.5 °C in [11]; -0.7 °C in data set [14]. The deltaT is -2.5 °C in [17] and -2.9 °C in data set [21]. Also, the Activity entry in [12], in data set [2], in data set [3] and in data set [20] was “Non-toxic” throughout. Further, the result in data set [13] was inactive. Besides, the outcome in data set [25], in data set [15], in data set [16], in [18] and in data set [19] was Active.
For the compound `O=C1OC(c2ccccc2)C(=O)N1CCN1CCN(c2ccc(F)cc2)CC1` (centres undefined), the deltaT in data set [7] was -0.6 °C; in data set [8], -1.4 °C; in [9], -0.5 °C; in data set [10], -0.4 °C; in data set [11], -1.4 °C; in [14] it was -0.5 °C. Also, the deltaT in data set [17] was -1.5 °C; in data set [21], -1.4 °C. In addition, the Activity entry in data set [12], in data set [2], in [3] and in data set [20] was “Non-toxic” throughout. The result in data set [1], in data set [13], in data set [15] and in [19] was inactive. In [22], the outcome was Active. Moreover, the inhibition entry in data set [23] was “Active”.
Turning to `O=C1NC(c2ccccc2)(c2ccccc2)C(=O)N1CCN1CCN(c2ccccn2)CC1`, the outcome in data set [1] and in data set [4] was inactive. In addition, the Activity result in data set [2] and in data set [3] was “Non-toxic” each time.
As for `O=C1NC(c2ccccc2)(c2ccccc2)C(=O)N1CCNc1ccc(O)cc1`, the result in data set [1] and in [4] was inactive. Further, the Activity result in [2] and in data set [3] was “Non-toxic” throughout.
